Reference: ChEMBL document CHEMBL1136397, “5-Aryl thiazolidine-2,4-diones as selective PPARgamma agonists” (Bioorg Med Chem Lett, 2003)

Legend:
[1] = target: T1, Peroxisome proliferator-activated receptor gamma (Homo sapiens, UniProt P37231)
T1 sequence (P37231 whole entry): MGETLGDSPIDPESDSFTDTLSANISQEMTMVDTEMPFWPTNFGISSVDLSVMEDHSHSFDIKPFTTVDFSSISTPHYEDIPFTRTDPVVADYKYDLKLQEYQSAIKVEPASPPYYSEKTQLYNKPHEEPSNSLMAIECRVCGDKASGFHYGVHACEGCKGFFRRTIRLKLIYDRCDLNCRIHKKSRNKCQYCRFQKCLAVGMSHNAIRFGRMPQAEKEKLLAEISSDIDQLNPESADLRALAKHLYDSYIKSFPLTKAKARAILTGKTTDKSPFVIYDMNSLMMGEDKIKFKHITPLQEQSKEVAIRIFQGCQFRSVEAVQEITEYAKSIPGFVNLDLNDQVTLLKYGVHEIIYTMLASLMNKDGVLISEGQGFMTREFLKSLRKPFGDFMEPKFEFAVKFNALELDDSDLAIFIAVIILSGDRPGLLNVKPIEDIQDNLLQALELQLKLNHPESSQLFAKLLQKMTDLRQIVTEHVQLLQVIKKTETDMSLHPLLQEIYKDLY
Description: In vitro binding affinity against human PPAR gamma (peroxisome proliferator-activated gamma receptor)

[2] = target: T2, Peroxisome proliferator-activated receptor alpha (Homo sapiens, UniProt Q07869); test: In vitro binding affinity against human PPAR alpha (peroxisome proliferator-activated alpha receptor)
T2 sequence (Q07869 whole entry): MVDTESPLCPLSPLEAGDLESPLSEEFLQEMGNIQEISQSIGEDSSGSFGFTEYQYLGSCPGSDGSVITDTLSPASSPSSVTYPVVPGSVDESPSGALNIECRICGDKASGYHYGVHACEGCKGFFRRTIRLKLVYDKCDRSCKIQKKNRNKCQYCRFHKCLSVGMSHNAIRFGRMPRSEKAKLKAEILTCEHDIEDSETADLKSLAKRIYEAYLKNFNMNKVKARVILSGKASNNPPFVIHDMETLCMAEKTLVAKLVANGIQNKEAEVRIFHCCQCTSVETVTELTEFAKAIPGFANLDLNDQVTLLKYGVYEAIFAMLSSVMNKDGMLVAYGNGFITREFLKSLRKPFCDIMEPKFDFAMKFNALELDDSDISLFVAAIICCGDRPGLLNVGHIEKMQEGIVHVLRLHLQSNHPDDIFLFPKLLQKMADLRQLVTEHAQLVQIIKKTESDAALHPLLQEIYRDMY

[3] = target: T3, Peroxisome proliferator-activated receptor delta (Homo sapiens, UniProt Q03181)
T3 sequence (Q03181 whole entry): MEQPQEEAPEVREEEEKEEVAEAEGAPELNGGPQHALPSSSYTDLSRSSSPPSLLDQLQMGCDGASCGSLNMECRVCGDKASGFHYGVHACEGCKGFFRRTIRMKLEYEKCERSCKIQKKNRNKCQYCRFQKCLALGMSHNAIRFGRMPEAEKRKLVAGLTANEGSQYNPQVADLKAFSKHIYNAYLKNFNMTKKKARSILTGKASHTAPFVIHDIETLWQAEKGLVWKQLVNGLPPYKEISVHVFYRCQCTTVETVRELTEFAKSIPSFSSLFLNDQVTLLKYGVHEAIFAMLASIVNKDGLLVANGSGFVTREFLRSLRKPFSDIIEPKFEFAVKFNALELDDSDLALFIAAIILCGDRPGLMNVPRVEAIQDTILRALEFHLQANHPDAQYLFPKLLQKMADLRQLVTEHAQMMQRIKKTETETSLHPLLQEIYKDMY
Description: In vitro binding affinity against human PPAR delta (peroxisome proliferator-activated delta receptor)

[4] = target: T2, Peroxisome proliferator-activated receptor alpha; test: In vitro agonist activity tested for transactivation in human PPAR alpha-Gal4 chimeric COS-1 cells; format: functional, cell-based
[5] = target: T1, Peroxisome proliferator-activated receptor gamma; remark: listed apart in the source
Description: In vitro agonist activity tested for transactivation in human PPAR gamma-Gal4 chimeric COS-1 cells

[6] = target: T3, Peroxisome proliferator-activated receptor delta; remark: listed apart in the source
Description: In vitro agonist activity tested for transactivation in human PPAR delta-GAL4 chimeric COS-1 cells

[7] = Oral bioavailability in rat (dose 2 mg/kg); format: ADME, organism-based; settings: in vivo
[8] = (§1) Plasma clearance was determined in rat after intravenous administration (0.5 mg/kg); format: ADME, organism-based; settings: read-out: Clp
[9] = system: Rattus norvegicus; test: Dose-normalized AUC was determined in rat after peroral administration (2 mg/kg); format: ADME, organism-based; settings: in vivo, po
[10] = system: Mus musculus; test: In vivo glucose correction was determined in male db/db mice after administration at 5 mg/kg; format: functional
[11] = system: Mus musculus; test: In vivo triglyceride correction was determined in male db/db mice after administration at 5 mg/kg; format: functional
[12] = Half-life was determined in rat after intravenous administration (0.5 mg/kg); format: ADME, organism-based; settings: in vivo
[13] = In vivo glucose correction was determined in male db/db mice after administration at 10 mg/kg; format: functional, Mus musculus
[14] = In vivo triglyceride correction was determined in male db/db mice after administration at 10 mg/kg; format: functional, Mus musculus
[15] = system: Rattus norvegicus; test: as §1; format: functional, organism-based

SMILES | IC50 [1] [µM] | IC50 [2] [µM] | IC50 [3] [µM] | EC50 [5] [µM] | EC50 [4] [µM] | EC50 [6] [µM] | bioavailability [7] [%] | clearance [8] [mL/min/kg] | AUC [9] [µM·h] | Glucose correction [10] [%] | Triglyceride correction [11] [%] | half-life [12] [h] | Glucose correction [13] [%] | Triglyceride correction [14] [%] | CL (mL.min-1.kg-1) [15]
O=C1NC(=O)C(c2ccc(OCCCOc3ccc(Oc4ccccc4)cc3)cc2)S1 (stereo unspecified) | > 15 | > 50 | > 50 |  |  |  |  |  |  |  |  |  |  |  | 
CCCc1cc(Oc2ccc(NS(=O)(=O)c3ccc(C)cc3)cc2)ccc1OCCCOc1ccc(C2SC(=O)NC2=O)cc1 (stereo unspecified) | 5.7 | > 50 | > 50 | 0.5 | > 3 | > 3 |  |  |  |  |  |  |  |  | 
CCCc1cc(Oc2ccccc2)ccc1OCCCCOc1ccc(C2SC(=O)NC2=O)cc1 (stereo unspecified) | 3 | > 50 | > 10 |  | > 3 | > 3 |  |  |  |  |  |  |  |  | 
CN(CCOc1ccc(CC2SC(=O)NC2=O)cc1)c1ccccn1 (stereo unspecified) [ROSIGLITAZONE] |  |  |  |  |  |  | 85 | 2.7 | 16.4 | 46 | 52 | 1.2 |  |  | 
CCCc1cc(Oc2ccc(S(C)(=O)=O)cc2)ccc1OCCCOc1ccc(C2SC(=O)NC2=O)cc1 (stereo unspecified) | 0.25 | > 50 | > 50 | 0.12 | > 3 | > 3 | 84 |  | 11.8 | 62 | 55 | 2.8 | 86 | 78 | 2.1
CCCc1cc(Oc2ccc(Cl)cc2)ccc1OCCCOc1ccc(C2SC(=O)NC2=O)cc1 (stereo unspecified) | 2 | > 50 | > 50 | 0.08 | 3 | > 3 | 58 | 2.9 | 6.7 |  |  | 5.4 | 86 | 80 | 
CCCc1cc(Oc2ccccc2)ccc1OCCCOc1ccc(C2SC(=O)NC2=O)cc1F (stereo unspecified) |  |  | 2 | 0.3 | > 3 | > 3 | 63 | 2.9 | 7.43 |  |  | 1.7 | 43 | 50 | 
CCCc1cc(Oc2ccc(OC)cc2)ccc1OCCCOc1ccc(C2SC(=O)NC2=O)cc1 (stereo unspecified) | 0.46 | > 50 | > 50 |  | > 10 | > 3 | 39 | 1.1 | 11.7 |  |  | 2.8 | 67 | 67 | 
CCCc1cc(Oc2ccccc2)ccc1OCCCOc1ccc(C2SC(=O)NC2=O)cc1 (stereo unspecified) |  | 50 | > 10 |  | > 3 | > 3 | 89 | 2.3 | 13.8 |  |  | 2.3 | 77 | 74 | 
CCCc1cc(Oc2ccc(F)cc2)ccc1OCCCOc1ccc(C2SC(=O)NC2=O)cc1 (stereo unspecified) |  | > 50 | > 50 |  | > 50 | > 50 | 63 | 3.6 | 5.97 |  |  | 2.1 | 78 | 71 | 

Further lines, with some results ahead:

IC50 [1] [µM] | IC50 [2] [µM] | IC50 [3] [µM] | EC50 [5] [µM] | SMILES | EC50 [4] [µM] | EC50 [6] [µM] | bioavailability [7] [%] | clearance [8] [mL/min/kg] | AUC [9] [µM·h] | Glucose correction [10] [%] | Triglyceride correction [11] [%] | half-life [12] [h] | Glucose correction [13] [%] | Triglyceride correction [14] [%] | CL (mL.min-1.kg-1) [15]
1 | > 50 | > 10 | 0.4 | CCCc1cc(Oc2ccccc2)ccc1OCCCOc1ccc(C2SC(=O)NC2=O)cc1OC (stereo unspecified) | > 3 | > 3 |  |  |  |  |  |  |  |  | 
0.13 | > 50 | > 50 | 0.03 | CCCc1cc(Oc2ccc(CC(C)C)cc2)ccc1OCCCOc1ccc(C2SC(=O)NC2=O)cc1 (stereo unspecified) | > 3 | > 3 |  |  |  |  |  |  |  |  | 
0.13 | > 50 | > 50 | 0.02 | CCCc1cc(Oc2ccc(-c3ccccc3)cc2)ccc1OCCCOc1ccc(C2SC(=O)NC2=O)cc1 (stereo unspecified) | > 3 | > 3 | 6 | 2.8 | 0.7 |  |  | 2.2 |  |  | 
 | 0.34 | 0.16 |  | CC(C)Cc1cc(Oc2ccccc2)ccc1OCCCOc1ccc(C2SC(=O)NC2=O)cc1 (stereo unspecified) |  |  |  |  |  |  |  |  |  |  | 
0.43 | > 50 | 0.88 | 0.7 | CCCc1cc(Oc2ccccc2)ccc1OCCCOc1ccc(C2SC(=O)NC2=O)cc1Cl (stereo unspecified) | > 3 | > 3 |  |  |  |  |  |  |  |  | 
6.7 | > 50 | 6 | 0.1 | CCCc1cc(Oc2ccccc2)ccc1OCCCOc1ccc(C2SC(=O)NC2=O)cc1C (stereo unspecified) | > 3 | > 3 |  |  |  |  |  |  |  |  | 
2 | > 50 | > 50 |  | CCCc1cc(Oc2ccc(NS(C)(=O)=O)cc2)ccc1OCCCOc1ccc(C2SC(=O)NC2=O)cc1 (stereo unspecified) |  |  |  |  |  |  |  |  |  |  | 
1.8 | > 50 | > 50 |  | CCCc1cc(Oc2ccc(C(F)(F)F)cc2)ccc1OCCCOc1ccc(C2SC(=O)NC2=O)cc1 (stereo unspecified) |  |  |  |  |  |  |  |  |  |  | 
0.12 | > 50 | 1 | 0.2 | CCCc1cc(Oc2ccccc2)ccc1OCCCOc1ccc(C2SC(=O)NC2=O)cc1CCC (stereo unspecified) | > 3 | 3 |  |  |  |  |  |  |  |  | 
2.6 | > 50 | > 50 |  | CCCc1cc(Oc2ccc(C)cc2)ccc1OCCCOc1ccc(C2SC(=O)NC2=O)cc1 (stereo unspecified) |  |  |  |  |  |  |  |  |  |  | 
0.18 | > 50 | > 50 |  | CCCc1cc(Oc2ccc(C3CCCC3)cc2)ccc1OCCCOc1ccc(C2SC(=O)NC2=O)cc1 (stereo unspecified) |  |  |  |  |  |  |  |  |  |  | 
